Details of data set [1]: method as in PMID 28747329, PMID 26861391, PMID 30669635. To be noted: humans, oral; cited from earlier work.
The nature of data set [2]: First phase: relative urinary hesperidin excretion in 24 h urine after 500 mL orange juice with 345 mg hesperidin. The data set is classed as in vivo, human. To be noted: for Relative urinary hesperidin excretion, low excretors: N=3, mean ± SD. The method, then:
The study consisted of two phases. In the first phase, 30 volunteers consumed 500 mL of orange juice (OJ) with 345 mg of hesperidin [9], and the levels of hesperidin excreted in urine were determined. The OJ used in the first phase of the study was the hesperidin OJ used in previous studies conducted by our group. The objective of this first phase of the study was to select volunteers with intermediate hesperidin metabolite levels excreted in urine to reduce the variability in the results in the second phase of the study.
For the first phase of the study—after at least 8 h of fasting—the participants’ urine was collected before the intake of 500 mL of OJ (basal urine) and after the intake of the OJ for 24 h, accumulated in a single volume urine (Figure 1). Urine samples were homogenized and centrifuged at 1900 g for 10 min at 4 °C, and the supernatant was collected and subdivided into aliquots which were stored at −80 °C until analysis.
Relative urinary hesperidin excretion values (% of hesperidin ingested) obtained in the first phase of the study were used to select the participants for the second phase of the study. It was calculated by the ratio between the sum of hesperidin metabolites and the amount of hesperidin consumed by the participants (345 mg). With these values, 18 volunteers with intermediate relative urinary hesperidin excretion values were selected for the second phase.
To obtain the main and secondary outcomes, the urinary levels of hesperidin metabolites and catabolites at baseline—before consuming the hesperidin supplement—and up to 24 h after consuming the hesperidin supplement in four urine fractions (0–3 h; 3–6 h; 6–8 h; 8–24 h) were determined. In addition, the serum levels of hesperidin metabolites and catabolites at baseline and at 2 h, 3 h, 4 h, 5 h, 6 h, 7 h, 8 h and 24 h after consuming the hesperidin supplement were quantified. To obtain the relative urinary hesperidin excretion in the first phase of the study, the urinary levels of hesperidin metabolites before consuming the OJ and in the 24 h urine after consuming the hesperidin supplement were determined.
Hesperetin and related metabolites were determined in urine and serum samples by liquid chromatography coupled to triple quadrupole mass spectrometry (LC-QqQ) using a UHPLC 1290 Infinity II Series coupled to a QqQ/MS 6490 Series (Agilent Technologies, Palo Alto, CA, USA) and an ACQUITY UPLC BEH C18 (100 × 2.1 mm; 1.8 µm) column (Waters, Milford, MA, USA). Mobile phase A was 100% water with 0.5% acetic acid and 10 mM ammonium acetate, and mobile phase B was 100% methanol. The column temperature was set at 45 °C and the injection volume was 5 µL. The triple quadrupole operated in negative electrospray ionization mode (ESI-). The source conditions were set at 25 psi for the nebulizer gas, 240 °C for the gas temperature, 17 L/min for the gas flow, 250 °C for the sheath gas temperature, 12 L/min for the sheath gas flow, 3500 V for the capillary voltage and 0 V for the nozzle voltage. The standards used for quantification purposes were: Hesperetin and Hesperidin (Extrasynthese, Genay, France); Hesperetin 7-O-beta-D-glucuronide, Hesperetin 3-O-beta-D-glucuronide and Hesperetin 7,3′-di-O-beta-D-glucuronide (Toronto Research Chemicals; North York, ON, Canada); Hesperitin 7-O-sulfate (Santa Cruz Biotechnology, Dallas, TX, USA). Hesperitin-d3 and Diosmetin 7-O-β-D-Glucuronide-d3 (Toronto Research Chemicals; North York, ON, Canada) were used as internal standards. […]

For data set [3] the following is noted: cited from earlier work.
Details of data set [4]: method as in PMID 18058792. To be noted: rats, intravenous administration of racemic hesperetin; cited from earlier work.

SMILES strings stand for the structures.

On to `COc1ccc([C@@H]2CC(=O)c3c(O)cc(O[C@@H]4O[C@H](CO[C@@H]5O[C@@H](C)[C@H](O)[C@@H](O)[C@H]5O)[C@@H](O)[C@H](O)[C@H]4O)cc3O2)cc1O` [hesperidin, hesperetin-7-O-rutinoside], for which the “Share of ingested hesperidin that reaches the large intestine” value in data set [1] is 70%. For the same molecule, the “Relative urinary hesperidin excretion, low excretors” value in data set [2] was 0.74 ± 0.11%. Also, the “Relative urinary hesperidin excretion, low excretors” value in data set [2] (listed as Hesperidin) worked out at 0.743 ± 0.112%. For the same molecule, the “Relative urinary hesperidin excretion, high excretors” value in data set [2] (N=4, mean ± SD) stood at 6.06 ± 1.46%. Besides, in data set [2] (N=21, mean ± SD), the “Relative urinary hesperidin excretion, intermediate excretors” value worked out at 2.31 ± 1.01%. Also, the “Mean relative urinary hesperidin excretion determined as hesperetin or hesperetin conjugates in urine” value in data set [2] (all participants N=28, mean ± SD) amounted to 2.67 ± 1.79%. In data set [3], the Solubility entry was “low” and the Water solubility result is “poor”.

With `COc1ccc([C@H]2CC(=O)c3c(O)cc(O)cc3O2)cc1O` [R-diastereoisomer, hesperetin], the “AUC of R-diastereoisomer compared to S-diastereoisomer” value in data set [4] is on record as 3.2 fold.

The values above are taken from PMC9231284, “Hesperidin Bioavailability Is Increased by the Presence of 2S-Diastereoisomer and Micronization—A Randomized, Crossover and Double-Blind Clinical Trial” (Nutrients, 2022).
